Results from the NIST ThermoML archive (doi:10.1021/acs.jced.6b00181).

Test: xn = mol fraction of the nth substance listed
Settings: Liquid, Other PVT measurement

C=CC [propene] + CCCCCC
Settings	mass density [kg/m3]
294.9 K, 1200 kPa, x1 = 0.9003	515.1
294.9 K, 1800 kPa, x1 = 0.9003	516.8
294.9 K, 2800 kPa, x1 = 0.9003	519
294.9 K, 3300 kPa, x1 = 0.9003	520.8
294.9 K, 4400 kPa, x1 = 0.9003	523.3
294.9 K, 10300 kPa, x1 = 0.9003	535.5
294.9 K, 17100 kPa, x1 = 0.9003	547.5
294.9 K, 24100 kPa, x1 = 0.9003	557.1
294.9 K, 30800 kPa, x1 = 0.9003	565.9
294.9 K, 37800 kPa, x1 = 0.9003	573.2
294.9 K, 44200 kPa, x1 = 0.9003	580.2
294.9 K, 51200 kPa, x1 = 0.9003	587.4
294.9 K, 55000 kPa, x1 = 0.9003	591.5
294.9 K, 58300 kPa, x1 = 0.9003	593.8
294.9 K, 67300 kPa, x1 = 0.9003	601.9
295 K, 1400 kPa, x1 = 0.606	568
295 K, 5200 kPa, x1 = 0.606	574.6
295 K, 6800 kPa, x1 = 0.606	577
295 K, 10300 kPa, x1 = 0.606	582.2
295 K, 17200 kPa, x1 = 0.606	592
295 K, 23900 kPa, x1 = 0.606	600
295 K, 30600 kPa, x1 = 0.606	606.9
295 K, 37500 kPa, x1 = 0.606	613.5
295 K, 44500 kPa, x1 = 0.606	619.4
295 K, 51100 kPa, x1 = 0.606	624.9
295 K, 57900 kPa, x1 = 0.606	630
295 K, 63100 kPa, x1 = 0.606	634.3
295 K, 66800 kPa, x1 = 0.606	636.7
295.3 K, 500 kPa, x1 = 0.4466	592.6
295.3 K, 700 kPa, x1 = 0.4466	594.3
295.3 K, 1400 kPa, x1 = 0.4466	595.1
295.3 K, 2100 kPa, x1 = 0.4466	596.8
295.3 K, 2800 kPa, x1 = 0.4466	597.6
295.3 K, 3700 kPa, x1 = 0.4466	598.9
295.3 K, 4800 kPa, x1 = 0.4466	600.6
295.3 K, 6800 kPa, x1 = 0.4466	603.6
295.3 K, 10200 kPa, x1 = 0.4466	607.9
295.3 K, 16900 kPa, x1 = 0.4466	615.3
295.3 K, 24100 kPa, x1 = 0.4466	622.5
295.3 K, 30900 kPa, x1 = 0.4466	629
295.3 K, 38100 kPa, x1 = 0.4466	634.6
295.3 K, 44500 kPa, x1 = 0.4466	640.3
295.3 K, 51600 kPa, x1 = 0.4466	646.2
295.3 K, 58300 kPa, x1 = 0.4466	651.1
295.3 K, 63000 kPa, x1 = 0.4466	654.6
295.3 K, 66500 kPa, x1 = 0.4466	657.1
295.6 K, 700 kPa, x1 = 0.1414	638.3
295.6 K, 1300 kPa, x1 = 0.1414	639.2
295.6 K, 1700 kPa, x1 = 0.8985	516.2
295.6 K, 1900 kPa, x1 = 0.8985	518.5
295.6 K, 2600 kPa, x1 = 0.8985	518.5
295.6 K, 3500 kPa, x1 = 0.1414	642
295.6 K, 3600 kPa, x1 = 0.8985	522.1
295.6 K, 4900 kPa, x1 = 0.8985	524.5
295.6 K, 7000 kPa, x1 = 0.8985	528.5
295.6 K, 8200 kPa, x1 = 0.1414	646.8
295.6 K, 8500 kPa, x1 = 0.8985	532.3
295.6 K, 10100 kPa, x1 = 0.8985	535.7
295.6 K, 10500 kPa, x1 = 0.8985	535.7
295.6 K, 10700 kPa, x1 = 0.1414	649.7
295.6 K, 13800 kPa, x1 = 0.8985	541.2
295.6 K, 14900 kPa, x1 = 0.1414	653.6
295.6 K, 16700 kPa, x1 = 0.8985	546.4
295.6 K, 17200 kPa, x1 = 0.8985	546.4
295.6 K, 20700 kPa, x1 = 0.1414	659.5
295.6 K, 23200 kPa, x1 = 0.8985	555.2
295.6 K, 24000 kPa, x1 = 0.1414	662.5
295.6 K, 27200 kPa, x1 = 0.1414	665.6
295.6 K, 29100 kPa, x1 = 0.8985	562.8
295.6 K, 30800 kPa, x1 = 0.1414	668.6
295.6 K, 34400 kPa, x1 = 0.8985	568.4
295.6 K, 37100 kPa, x1 = 0.1414	673.8
295.6 K, 38100 kPa, x1 = 0.8985	573.9
295.6 K, 41000 kPa, x1 = 0.8985	576.4
295.6 K, 42700 kPa, x1 = 0.1414	678.5
295.6 K, 44800 kPa, x1 = 0.8985	581.2
295.6 K, 47800 kPa, x1 = 0.1414	682.2
295.6 K, 48000 kPa, x1 = 0.1414	682.8
295.6 K, 48200 kPa, x1 = 0.1414	682.8
295.6 K, 48200 kPa, x1 = 0.8985	584.2
295.6 K, 48300 kPa, x1 = 0.1414	682.8
295.6 K, 51600 kPa, x1 = 0.8985	588
295.6 K, 52000 kPa, x1 = 0.1414	685.5
295.6 K, 54900 kPa, x1 = 0.8985	590.4
